Patent publication US20120220562A1, “Anti-Viral Compounds” (ABBOTT LABAORATORIES, priority 2011, published 2012)

Tests used:
HCV 1b-Con1 replicon = HCV 1b-Con1 replicon assay in the presence of 5% FBS; format: cell-based; settings: Hepatitis C virus
[1] = tested on: HCV 2a, 2b, 3a and 4a replicons; assay: HCV 2a, 2b, 3a and 4a replicon assays in the absence of human plasma; format: cell-based
Experimental: The inhibitory effects of the compounds of the invention on HCV replication can be determined by measuring activity of the luciferase reporter gene. For example, replicon-containing cells can be seeded into 96 well plates at a density of 5000 cells per well in 100 μl DMEM containing 5% FBS. The following day compounds can be diluted in dimethyl sulfoxide (DMSO) to generate a 200× stock in a series of eight half-log dilutions. The dilution series can then be further diluted 100-fold in the medium containing 5% FBS. Medium with the inhibitor is added to the overnight cell culture plates already containing 100 μl of DMEM with 5% FBS. In assays measuring inhibitory activity in the presence of human plasma, the medium from the overnight cell culture plates can be replaced with DMEM containing 40% human plasma and 5% FBS. […] Luciferin solution (100 μl, Promega) can be added to each well, and luciferase activity can be measured with a Victor II luminometer (Perkin-Elmer). The percent inhibition of HCV RNA replication can be calculated for each compound concentration and the EC50 value can be calculated using nonlinear regression curve fitting to the 4-parameter logistic equation and GraphPal Prism 4 software.

[2] = AUC value (pharmacokinetics); settings: in vivo

Row | SMILES | EC50 (HCV 1b-Con1 replicon) [pM] | EC50 values, fold less than those of Example 4.25 [1] | AUC value, fold greater than that of Example 2.9 [2] | AUC value, fold greater than that of Example 109 of the '301 application [2]
1 | COC(=O)N[C@H](C(=O)N1CCC[C@H]1c1nc2cc([C@H]3CC[C@H](c4ccc5[nH]c([C@@H]6CCCN6C(=O)[C@@H](NC(=O)OC)C(C)C)nc5c4)N3c3ccc(N4CCC(c5ccccc5)CC4)c(F)c3)ccc2[nH]1)C(C)C [Example 3.20, methyl {(2S)-1-[(2S)-2-{5-[(2R,5R)-1-[3-fluoro-4-(4-phenylpiperidin-1-yl)phenyl]-5-{2-[(2S)-1-{(2S)-2-[(methoxycarbonyl)amino]-3-methylbutanoyl}pyrrolidin-2-yl]-1H-benzimidazol-5-yl}pyrrolidin-2-yl]-1H-benzimidazol-2-yl}pyrrolidin-1-yl]-3-methyl-1-oxobutan-2-yl}carbamate] | < 100 | at least 15 fold | – | –
2 | COC(=O)N[C@H](C(=O)N1CCC[C@H]1c1nc2cc([C@H]3CC[C@H](c4ccc5[nH]c([C@@H]6CCCN6C(=O)[C@@H](NC(=O)OC)C(C)C)nc5c4)N3c3cc(F)c(N4CCC(c5ccccc5)CC4)c(F)c3)ccc2[nH]1)C(C)C [Example 5.1, methyl {(2S)-1-[(2S)-2-{5-[(2R,5R)-1-[3,5-difluoro-4-(4-phenylpiperidin-1-yl)phenyl]-5-{2-[(2S)-1-{(2S)-2-[(methoxycarbonyl)amino]-3-methylbutanoyl}pyrrolidin-2-yl]-1H-benzimidazol-5-yl}pyrrolidin-2-yl]-1H-benzimidazol-2-yl}pyrrolidin-1-yl]-3-methyl-1-oxobutan-2-yl}carbamate] | < 100 | at least 50 fold | about 30 fold | –
3 | COC(=O)N[C@H](C(=O)N1CCC[C@H]1c1nc2cc([C@H]3CC[C@H](c4cc5[nH]c([C@@H]6CCCN6C(=O)[C@@H](NC(=O)OC)C(C)C)nc5cc4F)N3c3ccc(C(C)(C)C)cc3)c(F)cc2[nH]1)C(C)C [Example 6.1, methyl {(2S)-1-[(2S)-2-{5-[(2R,5R)-1-(4-tert-butylphenyl)-5-{5-fluoro-2-[(2S)-1-{(2S)-2-[(methoxycarbonyl)amino]-3-methylbutanoyl}pyrrolidin-2-yl]-1H-benzimidazol-6-yl}pyrrolidin-2-yl]-6-fluoro-1H-benzimidazol-2-yl}pyrrolidin-1-yl]-3-methyl-1-oxobutan-2-yl}carbamate] | < 100 | – | – | about 9 fold
